The results in this text go back to ChEMBL document CHEMBL4627382, “Iheyamides A-C, Antitrypanosomal Linear Peptides Isolated from a Marine Dapis sp. Cyanobacterium” (J Nat Prod, 2020).

One may read the pIC50 as the IC50 on a negative log10 scale, so that one unit is a factor of ten. The low end stands for a large IC50, the high end for a small IC50.

The structures appear in SMILES notation. pIC50: −log10 of the molar value.

Data set [1] in a line: Selectivity ratio of IC50 for human WI38 cells to IC50 for Trypanosoma brucei rhodesiense IL-1501. Format: toxicity. Particulars: read-out: Ratio IC50.
For a further data set, the system named is WI-38. Kind of data set: Cytotoxicity against human WI38 cells incubated for 72 hrs by MTT assay. Format: cell-based. Particulars: WI-38, 72 h. (In general: Tetrazolium dyes change colour on reduction, which living cells bring about.)
Data set [2] can be described thus: Selectivity ratio of IC50 for human WI38 cells to IC50 for Trypanosoma brucei brucei 221. The note with it: read-out: Ratio IC50. Format: toxicity.
For data set [3], the system named is Trypanosoma brucei rhodesiense. Kind of data set: Antitrypanosomal activity against Trypanosoma brucei rhodesiense IL-1501 incubated for 69 hrs by AlamarBlue assay. The note with it: IL-1501, 69 h. Type of data set: functional, organism-based. A general note: Resazurin is reduced to fluorescent resorufin, in cell work by metabolically active cells.
Data set [4] has as its system Trypanosoma brucei brucei. Description: Antitrypanosomal activity against Trypanosoma brucei brucei 221 incubated for 69 hrs by AlamarBlue assay. Type of data set: functional, organism-based. The note with it: Trypanosoma brucei, 221, 69 h.

Regarding `CC[C@@H](C)[C@H](C(=O)N1CCC[C@H]1C(=O)N1C(=O)C=C(OC)[C@@H]1C(C)C)N(C)C(=O)[C@@H]1CCCN1C(=O)[C@H](C(C)C)N(C)C(=O)[C@@H](Cc1ccccc1)NC(=O)[C@H](Cc1ccccc1)N(C)C`, the selectivity ratio in data set [1] and in data set [2] was over 10 throughout. Also, the pIC50 is 4.74 in the data set with WI-38, 5.82 in data set [3] and 5.82 in data set [4].

Turning to `CC[C@@H](C)[C@H](C(=O)O)N(C)C(=O)[C@@H]1CCCN1C(=O)[C@H](C(C)C)N(C)C(=O)[C@@H](Cc1ccccc1)NC(=O)[C@H](Cc1ccccc1)N(C)C`, the pIC50 (in the data set with WI-38; in data set [3]; in data set [4]) was under 4.70 in each case.

In the case of `CC[C@@H](C)[C@H](C(=O)N1CCC[C@H]1C(=O)O)N(C)C(=O)[C@@H]1CCCN1C(=O)[C@H](C(C)C)N(C)C(=O)[C@@H](Cc1ccccc1)NC(=O)[C@H](Cc1ccccc1)N(C)C`, the pIC50 (in the data set with WI-38; in data set [3]; in data set [4]) was under 4.70 throughout.
